Data taken from patent US7932036B1, “Methods of determining acute myeloid leukemia response to treatment with farnesyltransferase” (Veridex, LLC, priority 2008, dated 2011).

Experiments:
[1] = system: previously untreated, poor-risk acute myeloid leukemia (AML); experiment: Phase 2 study of tipifarnib in older adults with previously untreated, poor-risk AML: clinical response and overall survival; assay type: in vivo, human
Source text: The current study utilized 67 bone marrow samples collected from an open label, multicenter, non-comparative phase 2 study investigating the efficacy and safety of farnesyltransferase inhibition with tipifarnib (R115777, ZARNESTRA®) in 158 older adults with previously untreated, poor-risk AML. The clinical results have been published elsewhere. Lancet et al. (2006).
Lancet et al. (2006). Briefly, HI was defined as any bone marrow blast count less than 5% or a reduction in bone marrow blasts by at least half. Progressive disease (PD) was defined as either >50% increase in bone marrow or circulating blast % from baseline, or new appearance of circulating blasts (on at least 2 consecutive occasions). Stable disease (SD) was defined as any response not meeting CR, PR, HI, or PD criteria.
This study examined gene expression profiles of leukemic bone marrow samples from patients enrolled in a Phase 2 clinical trial of the farnesyltransferase inhibitor tipifarnib in elderly patients with previously untreated poor-risk acute myelogenous leukemia. Lancet et al. (2006). Bone marrow from 67 patients was collected before treatment with tipifarnib and leukemic myeloid cells were enriched by Ficoll-density centrifugation (Table 1). Good quality total RNA from 13 responders (9 CR, 4 HI), 8 stable disease and 13 progressive disease patients was amplified, labeled, and hybridized to the Affymetrix U133A GeneChip. A total of 30 samples were evaluated by qPCR for validation of specific genes and 32 samples were evaluated for N-Ras mutational status.

[2] = system: relapsed or refractory AML; experiment: Independent set of 54 relapsed/refractory AML patients treated with tipifarnib; assay type: in vivo, human; conditions: for difference in overall survival between predicted responders and progressors: relapsed/refractory AML
Source text: We next performed external validation of the TSP classifier in an independent microarray dataset comprising of 54 relapsed/refractory AML patient samples. 20070048782. Importantly, a diagnostic assay that aims to predict response to a cancer therapy should have a high sensitivity (and negative predictive value) since it is important to capture as many potential responders as possible. Therefore, to define an appropriate cutoff for testing the TSP classifier we considered the need to obtain a high sensitivity of predicting responders while maintaining an acceptable level of specificity. In the training set, the level of specificity that could be achieved ranged from approximately 30% to 100% when the sensitivity was set at 100% to 80%, respectively. To ensure the classifier would predict as many responders as possible we tested a conservative cutoff that provided a specificity of approximately 60% in the training set. When this cutoff was applied to the independent testing set of relapsed/refractory AML, the RASGRP1:APTX gene classifier stratified responders with 92% NPV and 27.6% PPV (compared to 18.5% prevalence) (FIG. 3C). The associated odds ratio for being a responder was 4.38.
In the absence of a larger independent set of newly diagnosed AML samples we also utilized 54 relapsed or refractory AML samples from our previous investigation as an independent testing set (20070048782). […] Since the prevalence of responders in that dataset was 18% this represents an improvement of overall response of approximately 50%. […] Importantly we found no association with the two-gene classifier and patient prognosis in an independent set of AML patients who were treated with chemotherapeutics. […] Further work needs to be done to clarify whether the RASGRP1:APTX expression ratio has utility for other classes of FTIs.

[3] = Kaplan Meier, RASGRP1 gene classifier, newly diagnosed AML (FIG. 1B)
[4] = RASGRP1:APTX qPCR classifier, cut-point 0, 30 newly diagnosed AML samples

SMILES: Cn1cncc1[C@@](N)(c1ccc(Cl)cc1)c1ccc2c(c1)c(-c1cccc(Cl)c1)cc(=O)n2C [tipifarnib]
- median overall survival of the responders [1, 3]: 386 days
- median overall survival of those with progressive disease [1, 3]: 68 days
- median overall survival of the predicted resistant patients [1, 4]: 82 days
- median overall survival of those classified as responders [1, 4]: 295 days
- difference in overall survival between predicted responders and non-responders ([1]; RASGRP1:APTX top scoring pair, training set, newly diagnosed AML): 357 days
- prevalence of responders ([2]; 54 relapsed/refractory AML patient samples): 18%
- difference in overall survival between predicted responders and progressors ([2]; RASGRP1:APTX TSP classifier): 98 days
- difference in overall survival between predicted responders and progressors ([2]; RASGRP1 alone): 56 days
- median overall survival of predicted responders versus patients predicted to be resistant ([2]; two-gene classifier, relapsed or refractory AML): approximately 3 fold
